Data as given in the CheMixHub viscosity set.

Assay: xn = mol fraction of the nth substance listed

CC(C)OC(C)C + CC(C)O
viscosity [mPa·s], 100 kPa
Conditions | x1 = 0.0797 | x1 = 0.1607 | x1 = 0.2387 | x1 = 0.3497 | x1 = 0.4359 | x1 = 0.5553 | x1 = 0.6498 | x1 = 0.7351 | x1 = 0.848 | x1 = 0.9369
293.15 K | 1.78 | 1.32 | 1.02 | 0.755 | 0.635 | 0.52 | 0.458 | 0.418 | 0.38 | 0.35
298.15 K | 1.55 | 1.18 | 0.92 | 0.68 | 0.572 | 0.48 | 0.43 | 0.395 | 0.36 | 0.332
303.15 K | 1.39 | 1.05 | 0.84 | 0.63 | 0.53 | 0.45 | 0.404 | 0.375 | 0.344 | 0.318
308.15 K | 1.21 | 0.94 | 0.75 | 0.56 | 0.48 | 0.417 | 0.379 | 0.356 | 0.328 | 0.305
313.15 K | 1.05 | 0.83 | 0.67 | 0.51 | 0.44 | 0.383 | 0.356 | 0.334 | 0.311 | 0.29
318.15 K | 0.93 | 0.74 | 0.6 | 0.465 | 0.4 | 0.354 | 0.331 | 0.313 | 0.293 | 0.276
323.15 K | 0.82 | 0.647 | 0.522 | 0.41 | 0.361 | 0.327 | 0.309 | 0.295 | 0.276 | 0.26

C1COCO1 + CN(C)C=O
viscosity [mPa·s], 101 kPa
Conditions | x2 = 0.1012 | x2 = 0.2021 | x2 = 0.3028 | x2 = 0.4032 | x2 = 0.5033 | x2 = 0.6032 | x2 = 0.7028 | x2 = 0.8021 | x2 = 0.9012
298.15 K | 0.567 | 0.568 | 0.578 | 0.594 | 0.614 | 0.642 | 0.676 | 0.715 | 0.759
308.15 K | 0.506 | 0.51 | 0.52 | 0.535 | 0.552 | 0.578 | 0.606 | 0.637 | 0.671
318.15 K | 0.467 | 0.477 | 0.488 | 0.5 | 0.515 | 0.534 | 0.555 | 0.576 | 0.597

O=S(Cl)Cl + CCOCC
298.15 K, 101 kPa
Conditions | viscosity [mPa·s]
x1 = 0.334 | 0.3365
x1 = 0.845 | 0.548

C1COCO1 + CC(C)O
303.15 K, 101 kPa
Conditions | viscosity [mPa·s]
x1 = 0.08269 | 1.212
x1 = 0.1686 | 0.9776
x1 = 0.258 | 0.8386
x1 = 0.351 | 0.7477
x1 = 0.4479 | 0.6645
x1 = 0.5489 | 0.6082
x1 = 0.6543 | 0.6033
x1 = 0.7644 | 0.5856
x1 = 0.8795 | 0.5637

CCN(CCO)CCO + O
viscosity [mPa·s], 101 kPa
Conditions | 303.15 K | 308.15 K | 313.15 K | 318.15 K | 323.15 K
x1 = 0.0478 | 2.433 | 2.084 | 1.809 | 1.585 | 1.4
x1 = 0.1002 | 5.975 | 4.885 | 4.051 | 3.403 | 2.897
x1 = 0.1411 | 10.13 | 8.044 | 6.499 | 5.322 | 4.422
x1 = 0.1933 | 16.59 | 12.84 | 10.12 | 8.088 | 6.604
x1 = 0.2959 | 31.21 | 23.36 | 17.84 | 13.84 | 10.95
x1 = 0.3944 | 43.07 | 31.83 | 24.05 | 18.38 | 14.39
x1 = 0.495 | 51.1 | 37.78 | 28.28 | 21.56 | 16.84
x1 = 0.5912 | 54.81 | 40.53 | 30.44 | 23.28 | 18.22
x1 = 0.7064 | 55.22 | 40.91 | 31.03 | 23.93 | 18.76
x1 = 0.8113 | 53.42 | 39.97 | 30.47 | 23.66 | 18.65
x1 = 0.8934 | 51.39 | 38.76 | 29.74 | 23.19 | 18.44

O=C1CCC[NH+]1C1CCCCC1.O=S(=O)([O-])c1ccccc1 + O
Conditions | viscosity [mPa·s]
303.15 K, 101 kPa, x1 = 0.01351 | 1.405

CCCCCCCC/C=C\CCCCCCCC(=O)OCC(COC(=O)CCCCCCC/C=C\CCCCCCCC)OC(=O)CCCCCCC/C=C\CCCCCCCC + c1ccccc1
viscosity [mPa·s], 101.3 kPa
Conditions | x1 = 0.000368 | x1 = 0.000535 | x1 = 0.001078 | x1 = 0.002049 | x1 = 0.004187 | x1 = 0.006457 | x1 = 0.008697 | x1 = 0.01009
298.15 K | 0.613 | 0.6159 | 0.6281 | 0.6494 | 0.7009 | 0.7579 | 0.8092 | 0.8347
303.15 K | 0.572 | 0.5754 | 0.5855 | 0.6052 | 0.6529 | 0.7052 | 0.7525 | 0.7753
308.15 K | 0.5349 | 0.5384 | 0.5476 | 0.5658 | 0.6095 | 0.6577 | 0.7013 | 0.7219

O=C(O)[C@@H](O)[C@@H](O)C(=O)O + O
298 K, 101.3 kPa
Conditions | viscosity [mPa·s]
x1 = 0.000823 | 0.9012
x1 = 0.00165 | 0.9144
x1 = 0.003567 | 0.9399
x1 = 0.005454 | 0.9656
x1 = 0.006888 | 0.99
x1 = 0.00872 | 1.018
x1 = 0.01004 | 1.034
x1 = 0.01181 | 1.066

CC(=O)c1ccccc1 + CC(=O)O
298.15 K, 101 kPa
Conditions | viscosity [mPa·s]
x2 = 0.0998 | 1.741
x2 = 0.2107 | 1.754
x2 = 0.2935 | 1.742
x2 = 0.4253 | 1.703
x2 = 0.4885 | 1.668
x2 = 0.6003 | 1.598
x2 = 0.6998 | 1.524
x2 = 0.8002 | 1.42
x2 = 0.9013 | 1.293

C1COCO1 + CCO
303.15 K, 101 kPa
Conditions | viscosity [mPa·s]
x1 = 0.06463 | 0.898
x1 = 0.1346 | 0.838
x1 = 0.2104 | 0.7691
x1 = 0.2931 | 0.6852
x1 = 0.3834 | 0.6333
x1 = 0.4826 | 0.6121
x1 = 0.592 | 0.591
x1 = 0.7133 | 0.5886
x1 = 0.8484 | 0.569

CC(=O)c1ccccc1 + ClCCCl
298.15 K, 101 kPa
Conditions | viscosity [mPa·s]
x2 = 0.1118 | 1.531
x2 = 0.3581 | 1.283
x2 = 0.6942 | 0.993
